Measured values published in ChEMBL document CHEMBL4041541, “Solvent free, catalyst free, microwave or grinding assisted synthesis of bis-cyclic imide derivatives and their evaluation for anticancer activity” (Bioorg Med Chem Lett, 2017).

What was measured:
NCI-H522 [1] = test: Growth inhibition of human NCI-H522 cells after 24 hrs by MTT assay; assay type: functional, cell-based; details: NCI-H522, 24 h
PA-1 [2] = test: Growth inhibition of human PA1 cells after 24 hrs by MTT assay; assay type: functional, cell-based; details: PA-1, 24 h
[3] = Selectivity index, ratio of IC50 for HEK293T cells to IC50 for human T47D cells; assay type: functional
NCI-H522 [4] = test: Growth inhibition of human NCI-H522 cells at 1 x 10^-5 M after 24 hrs by MTT assay relative to control; assay type: functional; details: NCI-H522, 24 h, read-out: GI
[5] = Selectivity index, ratio of IC50 for HEK293T cells to IC50 for human NCI-H522 cells; assay type: functional
HEK-293T = test: Growth inhibition of HEK293T cells after 24 hrs by MTT assay; assay type: cell-based; details: Homo sapiens
PA-1 [6] = test: Growth inhibition of human PA1 cells at 1 x 10^-5 M after 24 hrs by MTT assay relative to control; assay type: functional; details: PA-1, 24 h, read-out: GI
HCT-15 [7] = test: Growth inhibition of human HCT15 cells at 1 x 10^-5 M after 24 hrs by MTT assay relative to control; assay type: functional; details: HCT-15, 24 h, read-out: GI
HepG2 [8] = test: Growth inhibition of human HepG2 cells at 1 x 10^-5 M after 24 hrs by MTT assay relative to control; assay type: functional; details: HepG2, 24 h, read-out: GI
HCT-15 [9] = test: Growth inhibition of human HCT15 cells after 24 hrs by MTT assay; assay type: functional, cell-based; details: HCT-15, 24 h
[10] = Selectivity index, ratio of IC50 for HEK293T cells to IC50 for human HepG2 cells; assay type: functional
T47D [11] = test: Growth inhibition of human T47D cells at 1 x 10^-5 M after 24 hrs by MTT assay relative to control; assay type: functional; details: read-out: GI
[12] = Selectivity index, ratio of IC50 for HEK293T cells to IC50 for human PA1 cells; assay type: functional
T47D [13] = test: Growth inhibition of human T47D cells after 24 hrs by MTT assay; assay type: functional, cell-based
HepG2 [14] = test: Growth inhibition of human HepG2 cells after 24 hrs by MTT assay; assay type: functional, cell-based; details: HepG2, 24 h
[15] = Selectivity index, ratio of IC50 for HEK293T cells to IC50 for human HCT15 cells; assay type: functional

| IC50 (NCI-H522 [1]) [µM] | IC50 (HCT-15 [9]) [µM] | IC50 (T47D [13]) [µM] | IC50 (HepG2 [14]) [µM] | Structure (SMILES) | IC50 (PA-1 [2]) [µM] | Ratio IC50 [3] | inhibition of growth at 10 µM (NCI-H522 [4]) [%] | Ratio IC50 [5] | IC50 (HEK-293T) [µM] | inhibition of growth at 10 µM (PA-1 [6]) [%] | inhibition of growth at 10 µM (HCT-15 [7]) [%] | inhibition of growth at 10 µM (HepG2 [8]) [%] | Ratio IC50 [10] | inhibition of growth at 10 µM (T47D [11]) [%] | Ratio IC50 [12] | Ratio IC50 [15] |
| --- | --- | --- | --- | --- | --- | --- | --- | --- | --- | --- | --- | --- | --- | --- | --- | --- |
| 37.1 | 14.4 | 31.1 | 18.3 | O=C1C2CC=CCC2C(=O)N1c1ccc(S(=O)(=O)c2ccc(N3C(=O)C4CC=CCC4C3=O)cc2)cc1 (stereo not drawn) | 32.1 | 2.5 - 4.5 | 56 | 2.5 - 4.5 | 42.2 | 41 | 51 | 19 | 2.5 - 4.5 | 41 | 2.5 - 4.5 | 2.5 - 4.5 |
| 38 | 21.1 | 14.5 | 17.3 | O=C1C2CC=CCC2C(=O)N1CCOCCOCCN1C(=O)C2CC=CCC2C1=O (stereo not drawn) | 18.8 | 2.5 - 4.5 | 59 | 2.5 - 4.5 | 44.2 | 31 | 45 | 53 | 2.5 - 4.5 | 51 | 2.5 - 4.5 | 2.5 - 4.5 |
| 19.6 | 63.3 | 12.7 | 17.1 | O=C1C2CCCCC2C(=O)N1c1ccc(S(=O)(=O)c2ccc(N3C(=O)C4CCCCC4C3=O)cc2)cc1 (stereo not drawn) | 22.6 | 2.5 - 4.5 | 49 | 2.5 - 4.5 | 43.6 | 36 | 65 | 57 | 2.5 - 4.5 | 51 | 2.5 - 4.5 | 2.5 - 4.5 |
